# Reference: PMC8589851 (Scientific Reports, 2021)
# Values joined by “and” are separate entries in the source; they are usually repeats but may differ in a detail not shown here. Equal values may be shown once. Read-outs that look alike come from different tables or passages of the source.
# Key:
# [1] = test system: SARS-CoV-2 NanoLuc reporter virus; assay: microbe, parasite or virus in culture; type: cell-based
# [2] = CF patients, cited from earlier work
# [3] = 0.25 mg daily for one week, cystic fibrosis patients; cited from earlier work
# native SARS-CoV-2 = settings: Vero cells; cited from earlier work
# [4] = test system: SARS-CoV-2 Spike pseudotyped VSV(S); assay: microbe, parasite or virus in culture; type: cell-based; settings: Severe acute respiratory syndrome coronavirus 2, A549, read-out: Hill plot-based EC-50, inhibition of virus penetration
# [5] = cited from earlier work
# [6] = 0.50–0.60 mg injected, 12 normal subjects; cited from earlier work
# [7] = 0.25 mg ouabain daily for 9 days
# [8] = 0.25 mg ouabain, normal human volunteers
smiles,measurement,setting,value
"C[C@]12CC[C@H](O)C[C@H]1CC[C@@H]1[C@@H]2CC[C@]2(C)[C@@H](C3=CC(=O)OC3)CC[C@]12O [Digitoxigenin, digitoxigenin]",inhibition of infectivity,[1],100%
"C[C@H]1O[C@@H](O[C@H]2[C@@H](O)C[C@H](O[C@H]3[C@@H](O)C[C@H](O[C@H]4CC[C@@]5(C)[C@H](CC[C@@H]6[C@@H]5CC[C@]5(C)[C@@H](C7=CC(=O)OC7)CC[C@]65O)C4)O[C@@H]3C)O[C@@H]2C)C[C@H](O)[C@@H]1O [Digitoxin, digitoxin]",inhibition of infectivity,[1],100%
same,peak serum concentration,"[2]; 0.1 mg/day by mouth, by day 28",10 ng/ml and 13 nM
same,adverse events,[2]; 0.05 or 0.1 mg/day for 28 days,no adverse events were associated with the study drug
"C[C@]12CC[C@H](O)C[C@H]1CC[C@@H]1[C@@H]2C[C@@H](O)[C@]2(C)[C@@H](C3=CC(=O)OC3)CC[C@]12O [Digoxigenin, digoxigenin]",inhibition of infectivity,[1],100%
"C[C@H]1O[C@@H](O[C@H]2[C@@H](O)C[C@H](O[C@H]3[C@@H](O)C[C@H](O[C@H]4CC[C@@]5(C)[C@H](CC[C@@H]6[C@@H]5C[C@@H](O)[C@]5(C)[C@@H](C7=CC(=O)OC7)CC[C@]65O)C4)O[C@@H]3C)O[C@@H]2C)C[C@H](O)[C@@H]1O [Digoxin, digoxin]",adverse events,[3],no adverse events associated with the study drug
same,inhibition of infectivity,[1],100%
same,EC50,native SARS-CoV-2,43 nM
"C[C@@H]1O[C@@H](O[C@H]2C[C@@H](O)[C@]3(CO)[C@H]4[C@H](O)C[C@]5(C)[C@@H](C6=CC(=O)OC6)CC[C@]5(O)[C@@H]4CC[C@]3(O)C2)[C@H](O)[C@H](O)[C@H]1O [Ouabain, ouabain]",EC50,[4],16 ± 1 nM
same,adverse events,[5]; [7],No adverse events were reported
same,time to plateau,[5]; [7],4 to 5 days
same,half-life,[5]; [8],19 to 24 h
same,peak plasma concentration,[5]; [8],12 ng/ml and 20 nM
same,adverse effects,[6],No adverse effects were reported
same,inhibition of infectivity,[1],100%
same,EC50,"[1]; Severe acute respiratory syndrome coronavirus 2, read-out: EC50, inhibition of infectivity",36 nM
same,EC50,native SARS-CoV-2,24 nM
